Read-outs that look alike come from different tables or passages of the source.
Biological target: ATR kinase (full-length ATR) (Homo sapiens (Human), UniProt Q13535)
Assay: ATR inhibition assay (radioactive-phosphate incorporation)
Type: biochemical
How it was run: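 Radiometric 33P incorporation by 5 nM full-length ATR into 800 μM target peptide with 10 μM [γ-33P]ATP, in 50 mM Tris/HCl pH 7.5, 10 mM MgCl2, 1 mM DTT, 7% DMSO, 25° C. Compound pre-incubated 10 minutes; reaction stopped after 24 hours, captured on phosphocellulose. Ki(app) from non-linear regression of initial rates.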

[1] = Ki(app), 5 nM full-length ATR, 10 μM ATP, 25° C.

Chain of ATR kinase (full-length ATR) (Q13535 whole entry): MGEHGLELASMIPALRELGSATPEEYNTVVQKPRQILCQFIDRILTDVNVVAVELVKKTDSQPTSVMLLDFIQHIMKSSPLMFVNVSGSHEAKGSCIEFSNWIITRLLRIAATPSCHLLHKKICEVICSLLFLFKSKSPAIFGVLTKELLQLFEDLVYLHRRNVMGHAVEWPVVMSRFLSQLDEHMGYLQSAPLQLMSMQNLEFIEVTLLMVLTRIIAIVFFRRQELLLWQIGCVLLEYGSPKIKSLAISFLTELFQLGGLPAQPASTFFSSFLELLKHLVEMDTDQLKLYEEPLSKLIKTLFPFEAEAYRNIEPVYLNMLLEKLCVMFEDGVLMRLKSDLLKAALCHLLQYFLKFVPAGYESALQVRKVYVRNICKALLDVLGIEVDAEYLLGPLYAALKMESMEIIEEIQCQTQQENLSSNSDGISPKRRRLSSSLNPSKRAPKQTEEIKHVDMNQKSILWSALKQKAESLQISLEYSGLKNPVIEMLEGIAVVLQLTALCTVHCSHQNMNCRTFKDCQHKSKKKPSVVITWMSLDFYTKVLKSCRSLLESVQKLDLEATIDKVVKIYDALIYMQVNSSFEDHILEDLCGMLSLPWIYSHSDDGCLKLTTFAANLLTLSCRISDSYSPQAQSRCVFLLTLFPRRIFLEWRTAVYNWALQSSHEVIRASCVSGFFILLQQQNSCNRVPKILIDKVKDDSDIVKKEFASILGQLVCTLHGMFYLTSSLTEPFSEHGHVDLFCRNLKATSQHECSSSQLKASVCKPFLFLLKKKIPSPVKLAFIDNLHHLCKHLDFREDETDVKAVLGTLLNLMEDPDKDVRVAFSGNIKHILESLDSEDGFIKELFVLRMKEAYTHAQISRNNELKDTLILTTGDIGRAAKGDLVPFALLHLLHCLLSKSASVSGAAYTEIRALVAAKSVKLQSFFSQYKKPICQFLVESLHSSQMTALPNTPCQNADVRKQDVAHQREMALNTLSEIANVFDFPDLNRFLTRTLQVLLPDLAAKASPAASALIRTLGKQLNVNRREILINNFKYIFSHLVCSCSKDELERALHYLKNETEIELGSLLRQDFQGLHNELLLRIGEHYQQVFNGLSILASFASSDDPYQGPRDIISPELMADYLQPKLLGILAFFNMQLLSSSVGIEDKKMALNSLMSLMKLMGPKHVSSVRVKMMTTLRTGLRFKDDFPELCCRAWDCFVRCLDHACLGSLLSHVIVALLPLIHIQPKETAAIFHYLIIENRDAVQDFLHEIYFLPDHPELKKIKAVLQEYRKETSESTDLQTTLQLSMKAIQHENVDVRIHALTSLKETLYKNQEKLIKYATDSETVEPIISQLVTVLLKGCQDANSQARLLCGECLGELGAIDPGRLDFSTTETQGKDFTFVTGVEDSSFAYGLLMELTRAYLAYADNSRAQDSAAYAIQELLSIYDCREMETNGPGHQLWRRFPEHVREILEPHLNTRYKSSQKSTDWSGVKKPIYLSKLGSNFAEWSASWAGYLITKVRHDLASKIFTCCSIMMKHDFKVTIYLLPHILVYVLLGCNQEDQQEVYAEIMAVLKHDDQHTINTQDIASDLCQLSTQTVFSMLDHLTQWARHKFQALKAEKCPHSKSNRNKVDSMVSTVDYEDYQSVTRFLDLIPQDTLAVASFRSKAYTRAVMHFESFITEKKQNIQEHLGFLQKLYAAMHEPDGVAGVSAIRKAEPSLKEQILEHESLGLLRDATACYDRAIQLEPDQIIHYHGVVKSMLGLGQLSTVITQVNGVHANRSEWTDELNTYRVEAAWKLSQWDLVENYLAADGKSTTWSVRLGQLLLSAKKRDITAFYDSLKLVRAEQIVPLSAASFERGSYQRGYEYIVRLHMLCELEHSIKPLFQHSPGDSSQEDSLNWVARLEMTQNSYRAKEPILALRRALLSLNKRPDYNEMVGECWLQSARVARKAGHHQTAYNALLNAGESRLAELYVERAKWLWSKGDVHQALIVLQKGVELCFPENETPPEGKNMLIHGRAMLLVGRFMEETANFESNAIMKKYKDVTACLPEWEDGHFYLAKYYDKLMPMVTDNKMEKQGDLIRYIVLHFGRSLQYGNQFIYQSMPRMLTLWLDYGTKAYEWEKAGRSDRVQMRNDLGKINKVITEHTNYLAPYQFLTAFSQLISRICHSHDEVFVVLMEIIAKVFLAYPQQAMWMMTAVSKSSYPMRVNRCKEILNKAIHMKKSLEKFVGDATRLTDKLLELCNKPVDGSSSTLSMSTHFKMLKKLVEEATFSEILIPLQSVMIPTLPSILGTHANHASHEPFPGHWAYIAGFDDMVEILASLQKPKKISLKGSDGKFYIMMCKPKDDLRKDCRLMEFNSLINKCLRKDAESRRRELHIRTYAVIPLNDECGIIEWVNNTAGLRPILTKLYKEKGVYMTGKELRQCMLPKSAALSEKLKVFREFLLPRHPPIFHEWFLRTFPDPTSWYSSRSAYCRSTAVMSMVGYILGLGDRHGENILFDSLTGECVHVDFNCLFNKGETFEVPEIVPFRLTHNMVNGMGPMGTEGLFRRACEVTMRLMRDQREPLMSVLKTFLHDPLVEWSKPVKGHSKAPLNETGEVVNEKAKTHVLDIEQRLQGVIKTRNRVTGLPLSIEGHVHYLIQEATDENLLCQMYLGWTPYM

Structure (SMILES) | Ki [1] [µM] | Ki [µM]
Cc1ncn(-c2ccncc2NC(=O)c2c(N)nn3cc(F)cnc23)c1C [I-N-269, 2-amino-N-(4-(4,5-dimethyl-1H-imidazol-1-yl)pyridin-3-yl)-6-fluoropyrazolo[1,5-a]pyrimidine-3-carboxamide] | 0.01 to 1 | –
Nc1nn2cc(F)cnc2c1C(=O)Nc1cnccc1O[C@H]1CCCNC1 [I-O-85, (S)-2-amino-6-fluoro-N-(4-(piperidin-3-yloxy)pyridin-3-yl)pyrazolo[1,5-a]pyrimidine-3-carboxamide] | 0.01 to 1 | –
N#CCc1cnc2c(C(=O)Nc3cnccc3N3CCOCC3)c(N)nn2c1 [I-N-81, 2-amino-6-(cyanomethyl)-N-(4-morpholinopyridin-3-yl)pyrazolo[1,5-a]pyrimidine-3-carboxamide] | 0.01 to 1 | –
Nc1nn2cc(Cl)cnc2c1C(=O)Nc1cnccc1N1CCC(N2CCC23COC3)CC1 [I-N-109, N-(4-(4-(6-oxa-1-azaspiro[3.3]heptan-1-yl)piperidin-1-yl)pyridin-3-yl)-2-amino-6-chloropyrazolo[1,5-a]pyrimidine-3-carboxamide] | 0.01 to 1 | –
Nc1nn2cc(F)cnc2c1C(=O)Nc1cnccc1N1CCN(C2COC2)C2CC21 (centres unmarked) [I-N-112, 2-amino-6-fluoro-N-(4-(5-(oxetan-3-yl)-2,5-diazabicyclo[4.1.0]heptan-2-yl)pyridin-3-yl)pyrazolo[1,5-a]pyrimidine-3-carboxamide] | – | 1 to 5
Nc1nn2cc(F)cnc2c1C(=O)Nc1cnccc1-c1cccnc1Cl [I-C-37, 2-amino-N-(2-chloro-[3,4′-bipyridin]-3′-yl)-6-fluoropyrazolo[1,5-a]pyrimidine-3-carboxamide] | – | 1 to 5
Nc1nn2cc(Cl)cnc2c1C(=O)Nc1cnccc1OCCO [I-O-66, 2-amino-6-chloro-N-(4-(2-hydroxyethoxy)pyridin-3-yl)pyrazolo[1,5-a]pyrimidine-3-carboxamide] | 0.01 to 1 | –

Second part, the compound after the results:

Ki [1] [µM] | Ki [µM] | Structure (SMILES)
0.01 to 1 | – | CN1CCN(C(=O)C2CCN(c3c(Cl)cncc3NC(=O)c3c(N)nn4cc(F)cnc34)CC2)CC1 [I-G-3, 2-amino-N-(5-chloro-4-(4-(4-methylpiperazine-1-carbonyl)piperidin-1-yl)pyridin-3-yl)-6-fluoropyrazolo[1,5-a]pyrimidine-3-carboxamide]
0.01 to 1 | – | CN1CC2(CCN(c3ccncc3NC(=O)c3c(N)nn4cc(F)cnc34)CC2)OC1=O [I-N-216, 2-amino-6-fluoro-N-(4-(3-methyl-2-oxo-1-oxa-3,8-diazaspiro[4.5]decan-8-yl)pyridin-3-yl)pyrazolo[1,5-a]pyrimidine-3-carboxamide]
0.01 to 1 | – | Cc1cncc(NC(=O)c2c(N)nn3cc(F)cnc23)c1N1CCC(C(=O)N2CCNCC2)CC1 [I-G-56, 2-amino-6-fluoro-N-(5-methyl-4-(4-(piperazine-1-carbonyl)piperidin-1-yl)pyridin-3-yl)pyrazolo[1,5-a]pyrimidine-3-carboxamide]
0.01 to 1 | – | Nc1nn2cc(F)cnc2c1C(=O)Nc1cnccc1N1CCN2C(=O)COCC2C1 (centres unmarked) [I-N-136, 2-amino-6-fluoro-N-(4-(4-oxohexahydropyrazino[2,1-c][1,4]oxazin-8(1H)-yl)pyridin-3-yl)pyrazolo[1,5-a]pyrimidine-3-carboxamide]
0.01 to 1 | – | CN1CCN(C(=O)C2CCN(c3c(F)cncc3NC(=O)c3c(N)nn4cc(F)cnc34)CC2)CC1(C)C [I-G-15, 2-amino-6-fluoro-N-(5-fluoro-4-(4-(3,3,4-trimethylpiperazine-1-carbonyl)piperidin-1-yl)pyridin-3-yl)pyrazolo[1,5-a]pyrimidine-3-carboxamide]
0.01 to 1 | – | CN1CCCN(c2ccncc2NC(=O)c2c(N)nn3cc(Cl)cnc23)CC1 [I-N-43, 2-amino-6-chloro-N-(4-(4-methyl-1,4-diazepan-1-yl)pyridin-3-yl)pyrazolo[1,5-a]pyrimidine-3-carboxamide]
0.01 to 1 | – | CN1CC2(CCC1=O)CCN(c1ccncc1NC(=O)c1c(N)nn3cc(F)cnc13)CC2 [I-N-231, 2-amino-6-fluoro-N-(4-(2-methyl-3-oxo-2,9-diazaspiro[5.5]undecan-9-yl)pyridin-3-yl)pyrazolo[1,5-a]pyrimidine-3-carboxamide]

Source: US10392391B2 (Vertex Pharmaceuticals Incorporated, priority 2012, dated 2019)
